Values after ≈ are worked out from the molar mass of the structure shown.
Tests used:
[1] = Stability of compound in 0.1 N aqueous HCl buffer at pH 1; format: physicochemical
[2] = Stability of compound in phosphate buffer at pH 6.5; format: physicochemical
[3] = Stability of compound in acetate buffer at pH 4; format: physicochemical
[4] = Solubility of compound in acetate buffer at pH 4; format: physicochemical
[5] = Half life in 0.1 N aqueous HCl buffer at pH 1; format: physicochemical; conditions: for half-life: 0.1 N aqueous HCl buffer
[6] = Total AUC in Sprague-Dawley rat assessed as ratio of atazanavir to parent level at 3 mg/kg equiv of atazanavir administered orally; format: ADME, organism-based; conditions: in vivo, po
[7] = Half life in phosphate buffer at pH 6.5; format: physicochemical; conditions: for half-life: phosphate buffer; for t1/2: buffer
[8] = Cmax in Sprague-Dawley rat assessed as atazanavir level at 3 mg/kg equiv of atazanavir administered orally; format: ADME, organism-based; design: route oral, dose 3 mg/kg(equiv); conditions: in vivo, po
[9] = Solubility of compound in phosphate buffer at pH 6.5; format: physicochemical
[10] = Tmax in Sprague-Dawley rat assessed as atazanavir level at 3 mg/kg equiv of atazanavir administered orally; format: ADME, organism-based; conditions: in vivo, po
[11] = Trough plasma concentration in Sprague-Dawley rat assessed as atazanavir level at 3 mg/kg equiv of atazanavir administered orally measured after 24 hrs; format: ADME, organism-based; conditions: in vivo, po; for concentration: read-out: Cmin; for Cmin: BLD = below limit of detection
[12] = Ratio of AUClast in Sprague-Dawley rat assessed as atazanavir to parent level at 3 mg/kg equiv of atazanavir administered orally; format: ADME, organism-based; conditions: in vivo, po
[13] = Relative oral bioavailability in Sprague-Dawley rat assessed as atazanavir level at 3 mg/kg equiv of atazanavir; format: ADME, organism-based; conditions: in vivo
[14] = AUClast in Sprague-Dawley rat assessed as atazanavir level at 3 mg/kg equiv of atazanavir administered orally; format: ADME, organism-based; design: route oral, time 0 - last, dose 3 mg/kg(equiv); conditions: in vivo, po
[15] = Solubility of compound in 0.1 N aqueous HCl buffer at pH 1; format: physicochemical
[16] = Half life in acetate buffer at pH 4; format: physicochemical; conditions: for half-life: acetate buffer; for t1/2: buffer
[17] = Solubility of compound in fasted state simulated intestinal fluid; format: physicochemical; conditions: simulated gi fluid
[18] = Half life in rat hepatocytes measured after 120 mins; format: ADME, cell-based, Hepatocyte
[19] = Half life in rat plasma measured after 60 mins; format: ADME, cell-free
[20] = Stability in rat plasma measured after 60 mins; format: ADME, cell-free; conditions: 1 h
[21] = Trough plasma concentration in Sprague-Dawley rat at 30 mg/kg, po measured after 24 hrs; format: ADME, organism-based; conditions: read-out: Cmin
[22] = acetate buffer, read-out: solubility
[23] = 0.1 N aqueous HCl buffer, read-out: solubility

SMILES	solubility [4, 22] [µg/mL]	half-life [5] [days]	Ratio AUC [6]	Cmax [8] [nM]	solubility [9] [µg/mL]	Tmax [10] [min]	concentration [11] [nM]	Ratio AUC [12]	F [13] [%]	AUClast [14] [nM·h]	solubility [15, 23] [µg/mL]	half-life [16] [days]	t1/2 [7] [h]	solubility ([15]; buffer) [µg/mL]	also measured
COC(=O)N[C@H](C(=O)N[C@@H](Cc1ccccc1)[C@H](CN(Cc1ccc(-c2ccccn2)cc1)NC(=O)[C@@H](NC(=O)OC)C(C)(C)C)OC(=O)OCOC(=O)[C@@H](N)C(C)C)C(C)(C)C	–	–	–	–	–	–	–	–	–	–	–	–	–	–	Stabilty [1]: Unstable; Stabilty [2]: Unstable; Stabilty [3]: Unstable
COC(=O)N[C@H](C(=O)N[C@@H](Cc1ccccc1)[C@H](CN(Cc1ccc(-c2ccccn2)cc1)NC(=O)[C@@H](NC(=O)OC)C(C)(C)C)OC(=O)OCOC(=O)[C@H](C(C)C)N(C)C)C(C)(C)C	> 450	> 20.8	7.7	573	5 (≈ 5.52 µM)	24	1.9	2.3	46	883	> 1200	> 20.8	–	–	half-life [7]: 4.32 days
COC(=O)N[C@H](C(=O)N[C@@H](Cc1ccccc1)[C@H](CN(Cc1ccc(-c2ccccn2)cc1)NC(=O)[C@@H](NC(=O)OC)C(C)(C)C)OC(=O)OCOC(=O)[C@@H](C(C)C)N(C)C)C(C)(C)C	> 500	> 20.8	5.3	639	6 (≈ 6.62 µM)	30	–	2	36	689	> 1800	15.7	–	–	half-life [7]: 2.67 days; Cmin [11]: Bld
COC(=O)N[C@H](C(=O)N[C@@H](Cc1ccccc1)[C@H](CN(Cc1ccc(-c2ccccn2)cc1)NC(=O)[C@@H](NC(=O)OC)C(C)(C)C)OC(=O)OCOC(=O)[C@@H](N)Cc1ccccc1)C(C)(C)C	–	0.708	–	–	–	–	–	–	–	–	–	0.688	–	–	–
COC(=O)N[C@H](C(=O)N[C@@H](Cc1ccccc1)[C@@H](O)CN(Cc1ccc(-c2ccccn2)cc1)NC(=O)[C@@H](NC(=O)OC)C(C)(C)C)C(C)(C)C [ATAZANAVIR]	< 1	–	–	–	< 1	–	–	–	–	–	–	–	–	–	concentration at 24 h [21]: 5 nM

Now from value to molecule, other results behind:

solubility [4, 22] [µg/mL]	half-life [5] [days]	Ratio AUC [6]	Cmax [8] [nM]	solubility [9] [µg/mL]	Tmax [10] [min]	concentration [11] [nM]	Ratio AUC [12]	F [13] [%]	AUClast [14] [nM·h]	solubility [15, 23] [µg/mL]	half-life [16] [days]	t1/2 [7] [h]	solubility ([15]; buffer) [µg/mL]	SMILES	also measured
> 3000	> 20.8	2.6	320	–	48	–	–	53	1013	–	> 20.8	> 10.9	> 1200	COC(=O)N[C@H](C(=O)N[C@@H](Cc1ccccc1)[C@H](CN(Cc1ccc(-c2ccccn2)cc1)NC(=O)[C@@H](NC(=O)OC)C(C)(C)C)OC(=O)OC(C)OC(=O)[C@@H](N)C(C)C)C(C)(C)C (stereo in doubt; 18)	Cmin [11]: Bld
–	–	–	–	–	–	–	–	–	–	–	–	5.3	> 3200	COC(=O)N[C@H](C(=O)N[C@@H](Cc1ccccc1)[C@H](CN(Cc1ccc(-c2ccccn2)cc1)NC(=O)[C@@H](NC(=O)OC)C(C)(C)C)OC(=O)OC(C)OC(=O)[C@@H](N)C(C)C)C(C)(C)C (stereo in doubt; 20)	solubility ([4]; buffer): > 1800 µg/mL; t1/2 [16]: 13.93 days
> 980	> 20.8	5.7	581	< 1	36	1.9	1	58	1097	> 1900	> 20.8	> 500	–	COC(=O)N[C@H](C(=O)N[C@@H](Cc1ccccc1)[C@H](CN(Cc1ccc(-c2ccccn2)cc1)NC(=O)[C@@H](NC(=O)OC)C(C)(C)C)OC(=O)OC(C)OC(=O)[C@H](C(C)C)N(C)C)C(C)(C)C (stereo in doubt; 21)	solubility [17]: 3 µg/mL (≈ 3.26 µM); half-life [18]: 25 min; half-life [19]: 41 min
–	–	92.1	398	–	48	16.7	17	103	1958	–	–	214.9	> 1800	COC(=O)N[C@H](C(=O)N[C@@H](Cc1ccccc1)[C@H](CN(Cc1ccc(-c2ccccn2)cc1)NC(=O)[C@@H](NC(=O)OC)C(C)(C)C)OC(=O)OC(C)OC(=O)[C@H](C(C)C)N(C)C)C(C)(C)C (stereo in doubt; 22)	solubility ([4]; buffer): > 490 µg/mL; Stabilty [20]: Stable; solubility [17]: 11 µg/mL (≈ 12 µM); t1/2 [16]: 13.93 days
> 600	> 20.8	–	–	< 1	–	–	–	–	–	> 1700	> 20.8	–	–	COC(=O)N[C@H](C(=O)N[C@@H](Cc1ccccc1)[C@H](CN(Cc1ccc(-c2ccccn2)cc1)NC(=O)[C@@H](NC(=O)OC)C(C)(C)C)OC(=O)OC(C)OC(=O)[C@@H](C(C)C)N(C)C)C(C)(C)C (stereo in doubt; 23)	half-life [7]: > 20.8 days
–	–	104.8	324	–	30	24	22	91	1737	–	–	–	> 2600	COC(=O)N[C@H](C(=O)N[C@@H](Cc1ccccc1)[C@H](CN(Cc1ccc(-c2ccccn2)cc1)NC(=O)[C@@H](NC(=O)OC)C(C)(C)C)OC(=O)OC(C)OC(=O)[C@@H](C(C)C)N(C)C)C(C)(C)C (stereo in doubt; 24)	solubility ([4]; buffer): > 540 µg/mL; t1/2 ([5]; buffer): > 20.8 days

— ChEMBL document CHEMBL4706615, “(Carbonyl)oxyalkyl linker-based amino acid prodrugs of the HIV-1 protease inhibitor atazanavir that enhance oral bioavailability and plasma trough concentration” (Eur J Med Chem, 2020)
